“Also recorded” adds a separate entry of the source.
Columns and labels:
[1] = tested on: human chylomicrons (CM); test: Ex vivo association with human plasma-derived chylomicrons; format: in vitro ADME; conditions: in words; for association with human chylomicrons (CM): 1.755 μM, 37 °C, 1 h, relative to parent drug
From the text: The protocol for preparation of human plasma-derived CM emulsion was approved by the Faculty of Medicine and Health Sciences Research Ethics Committee, Queens Medical Centre, Nottingham University Hospitals (BT12102015 CBS SoP). Healthy male volunteers of 19–40 years old and with body mass index of 18.5–25.0 were enrolled in the study after providing informed consent. The participants were excluded if any medication was used within one week prior to enrolment. On the morning of the study, participants received a high-fat meal (equivalent to a full English breakfast). Between 3 and 4 h following breakfast, 30 mL of blood was collected using heparinised tubes (Vacutainer® Blood Collection Tubes) and centrifuged (800 g, 10 min, 15 °C) to obtain plasma.
CM separation was performed as previously reported with minor modifications. Briefly, KBr (0.57 g) was mixed with 4 mL of plasma to yield density of 1.1 g/mL. PBS with densities of 1.006, 1.019, and 1.063 g/mL were prepared by adding appropriate amounts of KBr. These PBS of different densities were layered on top of the plasma to build density gradient layers in polyallomer ultracentrifuge tubes. The samples were then centrifuged at 268,350 g for 35 min at 15 °C using an ultracentrifuge (SORVALL® TH-641 Rotor, Thermo Fisher Scientific, UK). Following ultracentrifugation, approximately 1 mL of the upper layer containing CM was collected. TG concentration of CM emulsion was assessed using the TG enzymatic kit (Sigma Aldrich, Dorset, UK). TG concentration of the emulsion was adjusted to 100 mg/dL by diluting with PBS of 1.006 g/mL density. The CM emulsion was stored at 4 °C until the association assay (˂24 h).
(§1) The association of the compounds with artificial lipid particle emulsion and human CM was assessed using previously reported methodology with minor modifications. Briefly, 1 mL of artificial lipid particle or CM emulsions (TG concentration 100 mg/dL) was used for the association assay. The emulsion was spiked with stock solutions of tested compounds (in acetonitrile) to give a final concentration of 1.755 μM. The reaction mixtures were incubated at 37 °C for 1 h with magnetic stirring at 300 rpm. Following the incubation, density gradient ultracentrifugation was applied as described above to isolate the artificial lipid particles or CM associated with the tested compounds from the rest of the experimental medium. All experiments were conducted in quintuplicates or above.

[2] = tested on: esterase from porcine liver; test: Prodrug conversion assay in FaSSIF with added esterase activity; format: in vitro ADME; conditions: esterase 20 IU/mL, 10 μM, 37 °C, 4 h; in words
Protocol: BEX was purchased from LC Laboratories (Woburn, MA, USA). RA (all-trans), Intralipid®, esterase from porcine liver, sodium taurocholate (NaTc), NaCl, NaF and lecithin were obtained from Sigma (Gillingham, UK). Rat plasma was purchased from Sera Laboratories (West Sussex, UK). Thiazolyl blue tetrazolium bromide (MTT), sesame oil, polyethylene glycol 400 (PEG400) and all solvents (HPLC grade or higher) were purchased from Fisher Scientific (Loughborough, UK).
The prodrugs were tested for their stability and conversion into their corresponding active drug using fasted state simulated intestinal fluid (FaSSIF) with added esterase enzyme activity (20 IU/mL), rat plasma, and postprandial rat lymph. The FaSSIF was prepared as previously described in the literature. The medium was pre-heated to 37 °C prior to the assay for 5 min. […] When the stability of the artificial emulsion-associated prodrugs was tested in plasma, the association of compounds with artificial emulsion was performed prior to stability experiments and the concentrations of the compounds in the associated emulsion were measured. […] Samples were withdrawn at pre-determined time points, and the reaction was terminated by addition of acetonitrile. […] Half-life of active drug release (t1/2) was calculated by the following equation: t1/2 = −0.693/k. […]

[3] = Prodrug conversion assay in rat plasma; format: in vitro ADME
Protocol: (§2) The prodrugs were tested for their stability and conversion into their corresponding active drug using fasted state simulated intestinal fluid (FaSSIF) with added esterase enzyme activity (20 IU/mL), rat plasma, and postprandial rat lymph. The FaSSIF was prepared as previously described in the literature. The medium was pre-heated to 37 °C prior to the assay for 5 min. The experiment was initiated by spiking stock solutions of prodrugs to give a final concentration of 10 μM of the prodrugs in the medium. When the stability of the artificial emulsion-associated prodrugs was tested in plasma, the association of compounds with artificial emulsion was performed prior to stability experiments and the concentrations of the compounds in the associated emulsion were measured. The emulsion was then spiked to give a concentration of 10 μM of the prodrugs in plasma. The reaction mixtures were incubated at 37 °C and shaken at 200 rpm on a temperature-controlled orbital shaker (Thermo Scientific MaxQ4000, Waltham, MA, USA) for 4 h. Samples were withdrawn at pre-determined time points, and the reaction was terminated by addition of acetonitrile. The samples were then subjected to sample preparation and analysis as described below. The natural log percentage of the prodrug concentration was plotted against incubation time, and the slope (k) was obtained from the plot. Half-life of active drug release (t1/2) was calculated by the following equation: t1/2 = −0.693/k. All experiments were conducted in triplicate.

[4] = Biodistribution to mesenteric lymph nodes (MLN) and lymph following oral administration in rats; format: in vivo; conditions: rat
Protocol: The protocols for pharmacokinetic and biodistribution experiments in this study were reviewed and approved by the University of Nottingham Ethical Review Committee in accordance with the Animals [Scientific Procedures] Act 1986. Male Sprague Dawley rats (Charles River Laboratories, UK) weighing 350–380 g were used. The animals were housed in the Bio Support Unit, University of Nottingham. Continuous lymph collection was performed according to a protocol approved by the Institutional Animal Care and Use Committee at Rutgers, The State University of New Jersey. Male Sprague Dawley rats (Envigo, Inc., NJ, USA) weighing 300–350 g were used for the continuous lymph collection. Animals were allowed free access to food and water and were acclimatised for at least 6 days prior to any procedures at both institutions in a controlled-temperature environment with 12 h light/dark cycles.
Formulations were prepared as described in the above pharmacokinetic study and were delivered by an oral gavage. Animals were euthanised at pre-determined time points. Blood was collected from the posterior vena cava and lymph samples were taken from the mesenteric lymph duct. MLNs were dissected and collected as previously described. The MLNs were isolated from surrounding tissue with care not to compromise the integrity of the lymph nodes. The MLNs were homogenised (POLYTRON® PT 10–35 GT, Kinematica AG, Luzern, Switzerland) with 10 mg/mL NaF in water (1,2, w/v) on an ice bath prior to sample preparation for HPLC analysis.
A combination of protein precipitation and liquid-liquid extraction was applied to samples prior to HPLC injection. To 100 μL sample, 300 μL of acetonitrile was added for protein precipitation and then 300 μL of pH modifier was added when necessary (Supplementary Material Table S2). […] The organic layer was separated and evaporated under N2 gas. Reconstitution solvent (100 μL) was used as detailed in Supplementary Material Table S2 and 40 μL was injected into the HPLC-UV system. […] Therefore, storage and preparation of all samples were performed within the time frame and conditions of confirmed stability.
The HPLC-UV system consisting of a separation module (Waters Alliance 2695) equipped with a UV detector (Waters 996) was used for analysis. Samples in the autosampler were maintained at 4 °C and the column at 40 °C. The stationary and mobile phases were used as specified in Supplementary Material Table S2. BEX and its prodrugs were detected at 259 nm and RA and its prodrugs at 357 nm.

[5] = Prodrug conversion assay in postprandial rat lymph; format: in vitro ADME; conditions: CM-rich postprandial rat lymph, ex vivo; relative to rat plasma
Protocol: as §2, with “The natural log percentage of the prodrug concentration was plotted against incubation time, and the slope (k) was obtained from the plot.” left out, “All experiments were conducted in triplicate.” left out

[6] = In vitro association with artificial lipid particle emulsion prepared from Intralipid; format: in vitro ADME; conditions: TG 100 mg/dL, 1.755 μM, 37 °C, 1 h, in words, relative to parent drug
Protocol: To prepare the artificial lipid particle emulsion, Intralipid® 20% (Sigma, Gillingham, UK) was diluted using phosphate buffered saline (PBS) to yield 100 mg/dL of triglyceride (TG) concentration. A TG enzymatic kit (Sigma Aldrich, Dorset, UK) was used to monitor the TG concentration by following manufacturer's instructions.
as §1

**Q.** For `C=C(c1ccc(C(=O)OC)cc1)c1cc2c(cc1C)C(C)(C)CCC2(C)C` [prodrug 1], which “association with human chylomicrons (CM)” value [1] is on record?
**A.** The value was “equally high affinity to CM”.

**Q.** Which “association with human chylomicrons (CM)” value [1] does the source give for `C=C(c1ccc(C(=O)OCCC)cc1)c1cc2c(cc1C)C(C)(C)CCC2(C)C` [prodrug 4] here?
**A.** The value was “equally high affinity to CM”.

**Q.** With `C=C(c1ccc(C(=O)OCCCCCCCC)cc1)c1cc2c(cc1C)C(C)(C)CCC2(C)C` [prodrug 9] as the compound, how does the “conversion to BEX in FaSSIF with esterase” value [2] read?
**A.** Its value is “too slow to be detected”.

**Q.** For `C=C(c1ccc(C(=O)OC(COC(=O)CCCCCCCCCCCCCCC)COC(=O)CCCCCCCCCCCCCCC)cc1)c1cc2c(cc1C)C(C)(C)CCC2(C)C` [prodrug 13], which “conversion to BEX in rat plasma” value ([3]; in vitro, 10 μM, 37 °C, 4 h, in words) is on record?
**A.** Its value is “BEX was not released; also recorded: not observed”.

**Q.** And the “concentrations of BEX in intestinal lymphatics (MLNs, lymph) relative to plasma” value ([4]; BEX analyte, dose equivalent to 10 mg/kg BEX, in words)?
**A.** The value was “comparable to that in plasma”.

**Q.** What about the “intact form of prodrug in samples” value ([4]; plasma, MLN, lymph, any time point) of the same compound?
**A.** Its value is “not found in any sample at any time point”.

**Q.** Which “conversion to BEX in FaSSIF with esterase” value [2] does the source give for `C=C(c1ccc(C(=O)OC(C(C)C)C(C)C)cc1)c1cc2c(cc1C)C(C)(C)CCC2(C)C` [prodrug 18] here?
**A.** Its value is “too slow to be detected”.

**Q.** With `C=C(c1ccc(C(=O)OCCN(C(C)C)C(C)C)cc1)c1cc2c(cc1C)C(C)(C)CCC2(C)C` [prodrug 24] as the compound, how does the “difference in affinity for artificial emulsion versus natural human CM” value [1] read?
**A.** The value was “significant differences”.

**Q.** For `C=C(c1ccc(C(=O)OCc2oc(=O)oc2C)cc1)c1cc2c(cc1C)C(C)(C)CCC2(C)C` [prodrug 25], which “conversion of emulsion-associated form of prodrug in rat plasma” value ([3]; prodrug incorporated into Intralipid lipid particles, 10 μM, relative to free form) is on record?
**A.** Its value is “delayed conversion”.

**Q.** What about the half-life at 10 μM ([3]; rat, plasma, in vitro, 37 °C, free form, read-out: half-life of active drug release in rat plasma) of the same compound?
**A.** The half-life at 10 μM was 8 min.

**Q.** And the “half-life of active drug release in postprandial lymph” value [5]?
**A.** Its value is “prolonged”.

**Q.** Which results are given for `CCOC(=O)/C=C(C)/C=C/C=C(C)/C=C/C1=C(C)CCCC1(C)C` [prodrug 26]?
**A.** association with human chylomicrons (CM) [1]: improved association; association with artificial emulsion [6]: improved association

**Q.** Which “association with human chylomicrons (CM)” value [1] does the source give for `CC1=C(/C=C/C(C)=C/C=C/C(C)=C/C(=O)OCc2oc(=O)oc2C)C(C)(C)CCC1` [prodrug 27] here?
**A.** Its value is “improved association”.

**Q.** What about the “association with artificial emulsion” value [6] of the same compound?
**A.** Its value is “improved association”.

From PMC6143478, “Lipophilic activated ester prodrug approach for drug delivery to the intestinal lymphatic system” (Journal of Controlled Release, 2018)
